Experiment [1] addresses T1, HDAC1 (Homo sapiens, UniProt Q13547).
T1 construct: purchased Enzolifesciences BML-AK511
Put plainly: HDAC enzyme activity inhibition (in vitro), HDAC1 Fluorimetric Drug Discovery Assay Kit. Type of experiment: biochemical. The settings on record: samples at 100, 1000 and 10000 nM; 37° C. 60 minutes; fluorescence Ex 390, Em 460; read-out: HDAC1 IC50. The method in brief: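 HDAC1 was tested at 100, 1000 and 10000 nM and recombinant human HDAC6 at 0.1, 1, 10, 100 and 1000 nM. Enzyme reactions ran 60 min at 37° C, then developer was added for 30 min at 37° C, and fluorescence (Ex 390, Em 460) was read.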

Experiment [2] addresses T2, HDAC6 human recombinant (Homo sapiens, UniProt Q9UBN7).
T2 construct: purchased Calbiochem 382180
T2 sequence (Q9UBN7 1-1215): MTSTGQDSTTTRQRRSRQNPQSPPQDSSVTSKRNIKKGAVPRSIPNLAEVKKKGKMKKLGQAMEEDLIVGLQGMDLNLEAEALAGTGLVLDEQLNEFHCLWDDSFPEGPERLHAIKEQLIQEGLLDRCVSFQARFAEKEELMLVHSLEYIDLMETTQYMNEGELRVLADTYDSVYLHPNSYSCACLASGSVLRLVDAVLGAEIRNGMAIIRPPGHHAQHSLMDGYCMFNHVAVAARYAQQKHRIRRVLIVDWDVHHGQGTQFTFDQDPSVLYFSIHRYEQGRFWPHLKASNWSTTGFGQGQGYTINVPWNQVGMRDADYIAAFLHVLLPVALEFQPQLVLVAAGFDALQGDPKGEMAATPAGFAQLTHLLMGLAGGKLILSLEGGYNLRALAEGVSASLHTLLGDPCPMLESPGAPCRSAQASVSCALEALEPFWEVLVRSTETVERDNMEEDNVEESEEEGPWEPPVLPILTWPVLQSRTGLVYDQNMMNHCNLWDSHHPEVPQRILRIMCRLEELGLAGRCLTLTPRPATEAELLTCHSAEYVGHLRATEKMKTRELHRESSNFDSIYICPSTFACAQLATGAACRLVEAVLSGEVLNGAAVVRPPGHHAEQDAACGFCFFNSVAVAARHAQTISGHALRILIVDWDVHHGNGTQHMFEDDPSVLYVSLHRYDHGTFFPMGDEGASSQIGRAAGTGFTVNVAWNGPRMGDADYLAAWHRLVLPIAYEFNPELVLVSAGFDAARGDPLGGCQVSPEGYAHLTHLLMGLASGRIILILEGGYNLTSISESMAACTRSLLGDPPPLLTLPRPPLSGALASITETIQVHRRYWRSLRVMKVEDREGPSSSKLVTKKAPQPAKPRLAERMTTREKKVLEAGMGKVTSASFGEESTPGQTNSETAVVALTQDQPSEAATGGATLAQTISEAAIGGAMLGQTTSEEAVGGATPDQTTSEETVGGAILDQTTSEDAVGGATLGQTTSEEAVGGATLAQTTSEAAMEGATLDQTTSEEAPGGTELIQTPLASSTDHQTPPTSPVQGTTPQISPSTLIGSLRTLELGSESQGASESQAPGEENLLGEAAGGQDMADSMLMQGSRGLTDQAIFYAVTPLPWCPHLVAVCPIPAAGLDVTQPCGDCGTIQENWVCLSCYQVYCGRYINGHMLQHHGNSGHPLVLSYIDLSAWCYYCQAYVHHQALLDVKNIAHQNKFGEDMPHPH
Put plainly: HDAC enzyme activity inhibition (in vitro), HDAC6 assay. In kind it is biochemical. The settings on record: samples at 0.1, 1, 10, 100 and 1000 nM; 37° C. 60 minutes; fluorescence Ex 390, Em 460; read-out: HDAC6 IC50. The essentials:
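HDAC6 human recombinant enzyme with fluorimetric substrate; […]. Reaction 60 min at 37° C, then developer 30 min at 37° C; fluorescence read at Ex 390/Em 460.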

T1 sequence (Q13547 whole entry): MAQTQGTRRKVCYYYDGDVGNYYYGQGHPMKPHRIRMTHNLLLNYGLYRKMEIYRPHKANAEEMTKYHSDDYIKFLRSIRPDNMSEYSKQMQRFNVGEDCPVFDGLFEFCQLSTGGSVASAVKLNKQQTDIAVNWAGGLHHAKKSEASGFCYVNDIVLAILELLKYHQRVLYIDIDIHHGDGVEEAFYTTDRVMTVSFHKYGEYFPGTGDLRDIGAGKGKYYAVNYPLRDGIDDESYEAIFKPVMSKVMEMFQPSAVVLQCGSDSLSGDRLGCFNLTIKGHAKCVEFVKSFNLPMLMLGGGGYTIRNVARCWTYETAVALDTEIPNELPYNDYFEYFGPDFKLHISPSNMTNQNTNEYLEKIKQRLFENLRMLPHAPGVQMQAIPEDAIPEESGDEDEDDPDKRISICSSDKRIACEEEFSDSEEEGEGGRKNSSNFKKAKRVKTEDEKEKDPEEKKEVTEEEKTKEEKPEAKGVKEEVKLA

Take `O=c1oc2cc(C3CCN(C4CCC4)CC3)ccc2n1Cc1ccc(-c2nnc(C(F)F)o2)cn1` [Compound 315, 6-(1-cyclobutylpiperidine-4-yl)-3-((5-(5-(difluoromethyl)-1,3,4-oxadiazole-2-yl)pyridine-2-yl)methyl)benzo[d]oxazole-2(3H)-one]: the figures for the IC50 in experiment [1] and in experiment [2] were > 10000 nM and 118 nM, respectively.

Consider `CC(C)(C)OC(=O)N1CCN(c2cc3oc(=O)n(Cc4ccc(-c5nnc(C(F)F)o5)cn4)c3cc2F)CC1` [Compound 316, tert-butyl 4-(3-((5-(5-(difluoromethyl)-1,3,4-oxadiazole-2-yl)pyridine-2-yl)methyl)-5-fluoro-2-oxo-2,3-dihydrobenzo[d]oxazole-6-yl)piperazine-1-carboxylate], for which the values for the half-inhibitory concentration (IC50) in experiment [1] and in experiment [2] were > 10000 nM and 91 nM, respectively.

Turning to `CN1CCN(c2cc3oc(=O)n(Cc4ccc(-c5nnc(C(F)F)o5)cn4)c3cc2F)CC1` [Compound 317, 3-((5-(5-(difluoromethyl)-1,3,4-oxadiazole-2-yl)pyridine-2-yl)methyl)-5-fluoro-6-(4-methylpiperazine-1-yl)benzo[d]oxazole-2(3H)-one], the IC50 (as a rule, the concentration at which inhibition is half-maximal) in experiment [1] was > 10000 nM; in experiment [2] it was 15 nM.

In the case of `O=c1oc2cc(N3CCN(C4COC4)CC3)c(F)cc2n1Cc1ccc(-c2nnc(C(F)F)o2)cn1` [Compound 318, 3-((5-(5-(difluoromethyl)-1,3,4-oxadiazole-2-yl)pyridine-2-yl)methyl)-5-fluoro-6-(4-(oxetan-3-yl)piperazine-1-yl)benzo[d]oxazole-2(3H)-one], the IC50 in experiment [1] was > 10000 nM; in experiment [2] it was 56 nM.

Take `CN1CCN(c2cc3c(cc2F)n(Cc2ccc(-c4nnc(C(F)F)o4)cn2)c(=O)n3C2COC2)CC1` [Compound 319, 1-((5-(5-(difluoromethyl)-1,3,4-oxadiazole-2-yl)pyridine-2-yl)methyl)-6-fluoro-5-(4-methylpiperazine-1-yl)-3-(oxetan-3-yl)-1,3-dihydro-2H-benzo[d]imidazole-2-one]: the values for the IC50 in experiment [1] and in experiment [2] were > 10000 nM and 39 nM, respectively.

For `O=c1n(Cc2ccc(-c3nnc(C(F)F)o3)cn2)c2cc(F)c(N3CCN(C4CCC4)CC3)cc2n1C1COC1` [Compound 320, 5-(4-cyclobutylpiperazine-1-yl)-1-((5-(5-(difluoromethyl)-1,3,4-oxadiazole-2-yl)pyridine-2-yl)methyl)-6-fluoro-3-(oxetan-3-yl)-1,3-dihydro-2H-benzo[d]imidazole-2-one], the IC50 in experiment [1] was > 10000 nM; in experiment [2], 41 nM.

On to `O=c1n(Cc2ccc(-c3nnc(C(F)F)o3)cn2)c2cc(F)c(N3CCN(C4COC4)CC3)cc2n1C1COC1` [Compound 321, 1-((5-(5-(difluoromethyl)-1,3,4-oxadiazole-2-yl)pyridine-2-yl)methyl)-6-fluoro-3-(oxetan-3-yl)-5-(4-(oxetan-3-yl)piperazine-1-yl)-1,3-dihydro-2H-benzo[d]imidazole-2-one], for which the IC50 in experiment [1] was > 10000 nM; in experiment [2], 53 nM.

For `O=c1n(Cc2ccc(-c3nnc(C(F)F)o3)cn2)c2cc(F)c(N3CCN(Cc4cccc5[nH]ccc45)CC3)cc2n1C1COC1` [Compound 322, 5-(4-((1H-indole-4-yl)methyl)piperazine-1-yl)-1-((5-(5-(difluoromethyl)-1,3,4-oxadiazole-2-yl)pyridine-2-yl)methyl)-6-fluoro-3-(oxetan-3-yl)-1,3-dihydro-2H-benzo[d]imidazole-2-one], the IC50 in experiment [1] was > 10000 nM; in experiment [2], 29 nM.

For the molecule `O=c1n(Cc2ccc(-c3nnc(C(F)F)o3)cn2)c2cc(F)c(N3CCN(Cc4cn[nH]c4)CC3)cc2n1C1COC1` [Compound 323, 5-(4-((1H-pyrazole-4-yl)methyl)piperazine-1-yl)-1-((5-(5-(difluoromethyl)-1,3,4-oxadiazole-2-yl)pyridine-2-yl)methyl)-6-fluoro-3-(oxetan-3-yl)-1,3-dihydro-2H-benzo[d]imidazole-2-one], the IC50 is > 10000 nM in experiment [1] and 35 nM in experiment [2].

Regarding `O=c1n(Cc2ccc(-c3nnc(C(F)F)o3)cn2)c2cc(F)c(N3CCN(Cc4cccnc4)CC3)cc2n1C1COC1` [Compound 324, 1-((5-(5-(difluoromethyl)-1,3,4-oxadiazole-2-yl)pyridine-2-yl)methyl)-6-fluoro-3-(oxetan-3-yl)-5-(4-(pyridine-3-ylmethyl)piperazine-1-yl)-1,3-dihydro-2H-benzo[d]imidazole-2-one], the IC50 was > 10000 nM in experiment [1] and 42 nM in experiment [2].

Take `O=c1n(Cc2ccc(-c3nnc(C(F)F)o3)cn2)c2cc(F)c(N3CCN(CC(F)(F)F)CC3)cc2n1C1COC1` [Compound 325]: the IC50 was > 10000 nM in experiment [1] and 70 nM in experiment [2].

`CN(C)CCn1c(=O)n(Cc2ccc(-c3nnc(C(F)F)o3)cn2)c2cc(F)c(-c3cccnc3)cc21` [Compound 326, 1-((5-(5-(difluoromethyl)-1,3,4-oxadiazole-2-yl)pyridine-2-yl)methyl)-3-(2-(dimethylamino)ethyl)-6-fluoro-5-(pyridine-3-yl)-1,3-dihydro-2H-benzo[d]imidazole-2-one]: the IC50 in experiment [1] was > 10000 nM; in experiment [2] it was 160 nM.

As to `CN(C)CCn1c(=O)n(Cc2ccc(-c3nnc(C(F)F)o3)cn2)c2cc(F)c(-c3ccncc3)cc21` [Compound 327, 1-((5-(5-(difluoromethyl)-1,3,4-oxadiazole-2-yl)pyridine-2-yl)methyl)-3-(2-(dimethylamino)ethyl)-6-fluoro-5-(pyridine-4-yl)-1,3-dihydro-2H-benzo[d]imidazole-2-one], the values for the IC50 in experiment [1] and in experiment [2] were > 10000 nM and 58 nM, respectively.

As to `CN1CCN(c2cc3c(cc2F)n(Cc2ccc(-c4nnc(C(F)F)o4)cn2)c(=O)n3-c2cccnc2)CC1` [Compound 328, 1-((5-(5-(difluoromethyl)-1,3,4-oxadiazole-2-yl)pyridine-2-yl)methyl)-6-fluoro-5-(4-methylpiperazine-1-yl)-3-(pyridine-3-yl)-1,3-dihydro-2H-benzo[d]imidazole-2-one], the IC50 is > 10000 nM in experiment [1] and 85 nM in experiment [2].

In the case of `O=c1n(Cc2ccc(-c3nnc(C(F)F)o3)cn2)c2cc(F)c(N3CCN(C4COC4)CC3)cc2n1-c1cccnc1` [Compound 329, 1-((5-(5-(difluoromethyl)-1,3,4-oxadiazole-2-yl)pyridine-2-yl)methyl)-6-fluoro-5-(4-(oxetan-3-yl)piperazine-1-yl)-3-(pyridine-3-yl)-1,3-dihydro-2H-benzo[d]imidazole-2-one], the IC50 was > 10000 nM in experiment [1] and 127 nM in experiment [2].

Consider `Cn1c(=O)n(Cc2ccc(-c3nnc(C(F)F)o3)cn2)c2cc(F)c(-c3ccc(CN4CCOCC4)nc3)cc21` [Compound 330, 1-((5-(5-(difluoromethyl)-1,3,4-oxadiazole-2-yl)pyridine-2-yl)methyl)-6-fluoro-3-methy 1-5-(6-(morpholinomethyl)pyridine-3-yl)-1,3-dihydro-2H-benzo[d]imidazole-2-one], for which the IC50 in experiment [1] was > 10000 nM; in experiment [2], 22 nM.

For the molecule `CN1CCC(c2ccc3c(c2)sc(=O)n3Cc2ccc(-c3nnc(C(F)F)o3)cn2)CC1` [Compound 331, 3-((5-(5-(difluoromethyl)-1,3,4-oxadiazole-2-yl)pyridine-2-yl)methyl)-6-(1-methylpiperidine-4-yl)benzo[d]thiazole-2(3H)-one], the IC50 is > 10000 nM in experiment [1] and 61 nM in experiment [2].

The values are drawn from patent US20230092890A1, “1, 3, 4-Oxadiazole derivative compounds as histone deacetylase 6 inhibitor, and the pharmaceutical composition comprising the same” (Chong Kun Dang Pharmaceutical Corp., priority 2019, published 2023).
